Literature values in patent US11904002B2, “Construction and methods of use of a therapeutic cancer vaccine library comprising fusion-specific vaccines” (BostonGene Corporation, priority 2016, dated 2024).

Tested on: CD8+ T-cells
Conditions: CD8+ T-cells generated as a consequence of anti-PD1 treatment; murine MHC H-2Kb

Sequence	recognition by CD8+ T-cells
ITYTWTRL	targets of CD8+ T-cells
VGFNFRTL	targets of CD8+ T-cells
